Experimental data from patent publication US20210253705A1, “METHODS AND AGENTS FOR TREATING ORGAN INJURY AND TRANSPLANT REJECTION” (The Regents of the University of California, priority 2020, published 2021).

Test system: BALB/c airway allografts in C57BL/6 recipients
Experiment: Heterotopic subcutaneous tracheal/airway transplantation model of allograft rejection
Type: in vivo, mice
Details: recipients treated with CCR4 inhibitor, day 14
Experimental: Each mouse was subcutaneously transplanted with two tracheas. Small molecule CCR4 inhibitor or antagonist C 021 dihydrochloride (Cat #3581, Tocris Bio-Techne, Minneapolis, Minn., USA) was resuspended in sterile DMSO to 100 mg/ml and diluted further in 1×PBS to be administered as intraperitoneal (i.p.) injections at 50 mg/kg daily starting at day −1 prior to tracheal transplantation until day 14 when allografts were harvested for rejection analysis.
Histopathological Evaluation of Airway and Lung Transplants. Airway and lung graft tissues were fixed overnight in 4% paraformaldehyde, processed, paraffin-embedded, sectioned and stained with hematoxylin and eosin (H&E) or Elastin Trichrome. Three independent blinded reviewers calculated the degree of airway injury using a histological scoring system. All qualitative histological changes were evaluated and the total murine rejection score was calculated based on four pathological criteria: (a) airway lining epithelial loss, (b) deposition of extracellular matrix (ECM), (c) leukocyte infiltration, and (d) luminal fibro-obliteration due to granulation tissue formation and/or fibrosis. Each process was scored on a scale of 0-4 (0=normal, 1=mild, 2=moderate, 3=severe and 4=very severe) and added together for a total rejection score. […] Images were taken by Zeiss Axioskop 2 plus microscope and analyzed with AxioVision 4.2 imaging software. […]

`COc1cc2nc(N3CCC(N4CCCCC4)CC3)nc(NC3CCCCCC3)c2cc1OC.Cl.Cl` [C 021 dihydrochloride, 2-[1,4′-bipiperidin]-1′-yl-N-cycloheptyl-6,7-dimethoxy-4-quinazolinamine dihydrochloride] was tested, and the “H&E histology of airway allografts” value was “virtually normal epithelium and minimal matrix deposition without fibro-obliteration”.
